Experiment: Chemical stability of spray-dried zavegepant powder on storage, assay and % RS by HPLC/UV
Type: physicochemical
Details: zavegepant formulated as spray-dried powder, stored up to 6 months at 25/60 and 40/75
Description: The assay and purity, determined by HPLC/UV analysis, was 103.4% with a % RS of 1.46%.
Amounts of around 100 mg of the spray-dried powder from Example 2 above was dispensed into plastic DUMA containers placed in heat-sealed aluminium pouches together with a 4 Å molecular sieve desiccant. Two containers were placed inside a climate cabinet at 40 °C and 75% relative humidity (40/75) and two containers were placed inside a climate cabinet at 25 °C and 60% relative humidity (25/60).
The chemical stability of the drug substance after 6 months, with assay and total amounts of impurities and degradation products expressed as % RS, is summarized for the different climates in Table 3 below, in which NA means ‘not analysed’.

## Cc1cc(C[C@@H](NC(=O)N2CCC(c3cc4ccccc4[nH]c3=O)CC2)C(=O)N2CCN(C3CCN(C)CC3)CC2)cc2cn[nH]c12 [zavegepant]
  chemical stability (observed changes in % RS): surprisingly good
